Assay results from ChEMBL document CHEMBL3638998, “17Beta-hydroxysteroid dehydrogenase type 1 inhibitors for the treatment of hormone-related diseases” (2013).

Target: CYP2C9 (Homo sapiens, UniProt P11712)
Test: Inhibition Assay: Inhibition assay using P450 CYP enzymes.

CYP2C9, sequence (P11712 whole entry): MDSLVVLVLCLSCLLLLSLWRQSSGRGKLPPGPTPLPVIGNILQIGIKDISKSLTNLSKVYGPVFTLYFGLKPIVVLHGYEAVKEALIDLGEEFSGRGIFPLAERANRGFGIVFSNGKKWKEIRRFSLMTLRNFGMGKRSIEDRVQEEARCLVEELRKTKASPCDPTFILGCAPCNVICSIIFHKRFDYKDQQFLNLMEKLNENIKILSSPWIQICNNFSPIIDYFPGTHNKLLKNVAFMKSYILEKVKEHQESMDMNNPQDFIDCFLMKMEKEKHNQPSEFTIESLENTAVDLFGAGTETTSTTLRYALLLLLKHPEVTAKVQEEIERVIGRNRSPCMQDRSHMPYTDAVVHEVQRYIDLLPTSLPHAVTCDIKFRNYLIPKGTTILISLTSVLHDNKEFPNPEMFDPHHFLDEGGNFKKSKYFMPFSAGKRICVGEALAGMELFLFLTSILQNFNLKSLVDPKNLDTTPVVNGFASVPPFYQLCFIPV

IC50: 30 nM
SMILES: CNC(=O)/C=C/c1cc(OC)cc(-c2ccc3cc(OC)ccc3c2)c1
